Measurements reported in paper PMC2981816, “Oxalyl retro-peptide gelators. Synthesis, gelation properties and stereochemical effects” (Beilstein Journal of Organic Chemistry, 2010).

Columns and labels:
Type in all cases: physicochemical
[1] = Gelation test: gelator effectiveness (Geff) and minimal gelation concentration in solvents and solvent mixtures; parameters: key to Gelator effectiveness (Geff): sol.: soluble; ins.: insoluble; cr.: crystallization; [A]: gel/sol mixture; details: for Gelation effectiveness (Geff): Table 3
Description: (§1) Gelation observed for selected gelator–solvent pairs is expressed by gelator effectiveness (Geff, mL) corresponding to the maximal volume of solvent that could be immobilized by 10 mg of the gelator (Table 1). […] However, 3a and 5a also gelled small to moderate volumes of EtOH and rac-2-octanol, whilst Leu incorporating 1a formed gels with the more lipophilic solvents, decalin and tetralin. […] Apparently, the retro-peptides incorporating aliphatic and aromatic amino acids are less versatile gelators compared to retro-peptides containing […] amino acid fragments. The latter points to the importance of intermolecular lipophilic interactions for the stabilization of gel assemblies being stronger in the case of identical amino acids either lipophilic or aromatic, and weaker for mixed aromatic-lipophilic amino acid fragments present in the gelator molecule.

[2] = as above; parameters: key: sol.: soluble; ins.: insoluble; cr.: crystalline; [A]: gel/sol mixture; details: max. volume immobilized by 10 mg gelator, Table 3
Description: as §1

[3] = as above; parameters: key: sol.: soluble; ins.: insoluble; cr.: crystallization; [A]: gel/sol mixture; details: max. volume immobilized by 10 mg gelator, Table 3
Description: as §1

[4] = Concentration-dependent 1H NMR of toluene-d8 gel samples (self-assembly saturation point)
Excerpt: In the first case the oxalamide NH and Leu-NH protons were downfield shifted by 1.6 and 1.8 ppm, respectively, for a gelator concentration increase from 0.001–0.1 mol dm^−3. […] The monitored protons of (S,S)-1b are more strongly downfield shifted than the corresponding protons of (S,R)-1b for the same concentration range. Similar trends of NH and C*H concentration induced shifts are observed for (S,S)-1b and its racemate (S,S)-1b/(R,R)-1b toluene-d8 gels (Figure 6). Again the magnitudes of the NH and C*H concentration induced shifts are higher for the (S,S)-1b than for the racemate gel. […]
If the racemate were organized in the conglomerate as separate enantiomeric (S,S)-1b and (R,R)-1b assemblies, the magnitudes of the concentration induced shifts should be similar to those measured the for (S,S)-1b assemblies. […]
The discontinuous concentration induced shift curves obtained for (S,R)-1b diasteroisomer may indicate the presence of different assemblies at lower and higher gelator concentrations. It appears that the first saturation point is reached at a concentration around 0.03 mol dm^-3 and the second at 0.12 mol dm^−3, the latter corresponding nicely to the experimentally determined MGC of 0.116 mol dm^−3. […]

[5] = Gelation test: gelator effectiveness (Geff) and minimal gelation concentration in solvents and solvent mixtures
[6] = max. volume immobilized by 10 mg gelator, CH2Cl2, Table 2
[7] = max. volume immobilized by 10 mg gelator, CH3CN, Table 2
[8] = max. volume immobilized by 10 mg gelator, H2O/DMF mixture, given as volume + volume, Table 2
[9] = max. volume immobilized by 10 mg gelator, H2O/DMSO mixture, given as volume + volume, Table 2
[10] = max. volume immobilized by 10 mg gelator, H2O, Table 2
[11] = max. volume immobilized by 10 mg gelator, THF, Table 2
[12] = max. volume immobilized by 10 mg gelator, decalin, Table 2
[13] = max. volume immobilized by 10 mg gelator, p-xylene, Table 2
[14] = max. volume immobilized by 10 mg gelator, tetralin, Table 2
[15] = max. volume immobilized by 10 mg gelator, toluene, Table 2
[16] = max. volume immobilized by 10 mg gelator, H2O/DMF mixture, given as volume + volume
[17] = max. volume immobilized by 10 mg gelator, H2O/DMSO mixture, given as volume + volume
[18] = max. volume immobilized by 10 mg gelator, tetralin

## COC(=O)[C@H](CC(C)C)NC(=O)[C@@H](NC(=O)C(=O)N[C@H](C(=O)N[C@@H](CC(C)C)C(=O)OC)c1ccccc1)c1ccccc1 [4b, (S,S)-N,N'-Oxalyl-bis(phenylglycyl-leucine methyl ester)]
[1]; [6]
  Gelator effectiveness (Geff): sol.
[1]; [7]
  Gelator effectiveness (Geff): cr
[1]; [8]
  Gelator effectiveness (Geff): cr.
[1]; [9]
  Gelator effectiveness (Geff): 0.2+0.5 mL
[1]; [10]
  Gelator effectiveness (Geff): ins.
[1]; [11]
  Gelator effectiveness (Geff): sol.
[1]; [12]
  Gelator effectiveness (Geff): 4.8 mL
[1]; [13]
  Gelator effectiveness (Geff): 1.1 mL
[1]; [14]
  Gelator effectiveness (Geff): 0.9 mL
[1]; [15]
  Gelator effectiveness (Geff): 1.25 mL

## NC(=O)[C@@H](NC(=O)[C@@H](NC(=O)C(=O)N[C@H](C(=O)N[C@H](C(N)=O)c1ccccc1)c1ccccc1)c1ccccc1)c1ccccc1 [3c, bis(PhgPhgNH2)]
[2]; H2O/DMF mixture, given as volume + volume
  Gelation effectiveness (Geff): cr.
[2]; H2O/DMSO mixture, given as volume + volume
  Gelation effectiveness (Geff): cr.
[3]; CH2Cl2
  Gelation effectiveness (Geff): ins.
[3]; CH3CN
  Gelation effectiveness (Geff): ins.
[3]; EtOH
  Gelation effectiveness (Geff): ins.
[3]; H2O
  Gelation effectiveness (Geff): ins.
[3]; THF
  Gelation effectiveness (Geff): ins.
[3]; p-xylene
  Gelation effectiveness (Geff): ins.
[3]; tetralin
  Gelation effectiveness (Geff): ins.
[3]; toluene
  Gelation effectiveness (Geff): ins.
[3]; ±2-octanol
  Gelation effectiveness (Geff): ins.

## (S,R)-N,N'-Oxalyl-bis(leucyl-leucine methyl ester) [(S,R)-1b]
[1]; [6]
  Gelator effectiveness (Geff): sol.
[1]; [7]
  Gelator effectiveness (Geff): cr.
[1]; max. volume immobilized by 10 mg gelator, EtOH, Table 2
  Gelator effectiveness (Geff): cr.
[1]; [8]
  Gelator effectiveness (Geff): 11.5+11.7 mL
[1]; [9]
  Gelator effectiveness (Geff): 9.7+10.0 mL
[1]; [10]
  Gelator effectiveness (Geff): ins.
[1]; [11]
  Gelator effectiveness (Geff): cr.
[1]; [12]
  Gelator effectiveness (Geff): 0.8 mL
[1]; [13]
  Gelator effectiveness (Geff): 0.5 mL
[1]; [14]
  Gelator effectiveness (Geff): 0.2 mL
[1]; [15]
  Gelator effectiveness (Geff): 0.15 mL
[1]; max. volume immobilized by 10 mg gelator, ±2-octanol, Table 2
  Gelator effectiveness (Geff): cr.
[1]; toluene, experimentally determined
  minimal gelation concentration (MGC): 0.116 mol dm^−3
[4]; toluene-d8
  second saturation point of concentration induced 1H NMR shifts: 0.12 mol dm^−3
[4]; toluene-d8, concentration range 0.001–0.1 mol dm^−3, first or only saturation point
  saturation point of concentration induced 1H NMR shifts (self-assembly equilibrium): around 0.03 mol dm^−3

## CC(C)C[C@H](NC(=O)[C@H](CC(C)C)NC(=O)C(=O)N[C@@H](CC(C)C)C(=O)N[C@@H](CC(C)C)C(N)=O)C(N)=O [(S,S)-1c, bis(LeuLeuNH2)]
[1]; max. volume immobilized by 10 mg gelator, CH2Cl2 + DMSO (footnote a), volume + volume
  Gelation effectiveness (Geff): 1.05+0.2^a mL
[1]; [16]
  Gelation effectiveness (Geff): 0.45+0.75 mL
[1]; [17]
  Gelation effectiveness (Geff): 0.55+1.4 mL
[1]; [18]
  Gelation effectiveness (Geff): 7.3 mL
[1]; max. volume immobilized by 10 mg gelator, toluene + DMSO (footnote a), volume + volume
  Gelation effectiveness (Geff): 1.05+0.2^a mL
[2]; EtOH
  Gelation effectiveness (Geff): cr.
[3]; CH3CN
  Gelation effectiveness (Geff): ins.
[3]; H2O
  Gelation effectiveness (Geff): ins.
[3]; THF
  Gelation effectiveness (Geff): ins.
[3]; p-xylene
  Gelation effectiveness (Geff): ins.
[3]; ±2-octanol
  Gelation effectiveness (Geff): ins.

## O=C(N[C@@H](Cc1ccccc1)C(=O)N[C@@H](Cc1ccccc1)C(=O)O)C(=O)N[C@@H](Cc1ccccc1)C(=O)N[C@@H](Cc1ccccc1)C(=O)O [5a, (S,S)-N,N'-Oxalyl-bis(phenylalanyl-phenylalanine)]
[5]
  solubility in water: insoluble

## NC(=O)[C@H](Cc1ccccc1)NC(=O)[C@H](Cc1ccccc1)NC(=O)C(=O)N[C@@H](Cc1ccccc1)C(=O)N[C@@H](Cc1ccccc1)C(N)=O [5c, bis(PhePheNH2)]
[1]; [16]
  Gelation effectiveness (Geff): 2.7+3.0 mL
[1]; [17]
  Gelation effectiveness (Geff): 1.3+1.6 mL
[1]; [18]
  Gelation effectiveness (Geff): 2.0 mL
[3]; CH2Cl2
  Gelation effectiveness (Geff): ins.
[3]; CH3CN
  Gelation effectiveness (Geff): ins.
[3]; EtOH
  Gelation effectiveness (Geff): ins.
[3]; H2O
  Gelation effectiveness (Geff): ins.
[3]; THF
  Gelation effectiveness (Geff): ins.
[3]; p-xylene
  Gelation effectiveness (Geff): ins.
[3]; toluene
  Gelation effectiveness (Geff): ins.
[3]; ±2-octanol
  Gelation effectiveness (Geff): ins.

## bis(Leu)oxalamide [reference compound]
[1]; max. volume immobilized by 10 mg gelator, CH2Cl2 + DMSO (footnote a), given as volume + volume, Table 1
  Gelator effectiveness (Geff): 1.5+0.05^a mL
[1]; max. volume immobilized by 10 mg gelator, CH3CN, Table 1
  Gelator effectiveness (Geff): 0.95 mL
[1]; max. volume immobilized by 10 mg gelator, EtOH, Table 1
  Gelator effectiveness (Geff): 1.5 mL
[1]; max. volume immobilized by 10 mg gelator, H2O/DMF mixture, given as volume + volume, Table 1
  Gelator effectiveness (Geff): cr.
[1]; max. volume immobilized by 10 mg gelator, H2O/DMSO mixture, given as volume + volume, Table 1
  Gelator effectiveness (Geff): 0.8+0.4 mL
[1]; max. volume immobilized by 10 mg gelator, THF, Table 1
  Gelator effectiveness (Geff): 0.4 mL
[1]; max. volume immobilized by 10 mg gelator, decalin, Table 1
  Gelator effectiveness (Geff): 0.2 mL
[1]; max. volume immobilized by 10 mg gelator, p-xylene, Table 1
  Gelator effectiveness (Geff): 2.45 mL
[1]; max. volume immobilized by 10 mg gelator, tetralin, Table 1
  Gelator effectiveness (Geff): 3.0 mL
[1]; max. volume immobilized by 10 mg gelator, toluene, Table 1
  Gelator effectiveness (Geff): 1.95 mL
[1]; max. volume immobilized by 10 mg gelator, ±2-octanol, Table 1
  Gelator effectiveness (Geff): 10.95 mL
[1]; maximal volume of solvent immobilized by 10 mg of gelator, solvent H2O, Table 1
  Gelator effectiveness (Geff): 0.4 mL

## O=C(N[C@H](C(=O)N[C@H](C(=O)O)c1ccccc1)c1ccccc1)C(=O)N[C@H](C(=O)N[C@H](C(=O)O)c1ccccc1)c1ccccc1 [3a, (S,S)-N,N'-Oxalyl-bis(phenylglycyl-phenylglycine)]
[5]
  solubility in water: insoluble
